Values joined by “and” are separate entries in the source; they are usually repeats but may differ in a detail not shown here. Equal entries are not always repeated. “Also recorded” adds a separate entry of the source.
What was measured:
gonadotropin secretion = assay: Study CL003: gonadotropin secretion study in healthy female volunteers; type: in vivo, human
Protocol: Study CL003 was designed to investigate possible effects of (17β)19-norpregna-1,3,5(10)-trien-3-ol on gonadotropin secretion in healthy female volunteers. Because gonadotropins typically are secreted in a pulsatile pattern with 4-6 peaks per day, (17β)19-norpregna-1,3,5(10)-trien-3-ol was administered at 10-minute intervals over a 6-hour period. This timing was provided in order to determine whether (17β)19-norpregna-1,3,5(10)-trien-3-ol affected the pattern of pulsatility and/or the magnitude of the gonadotropin release. […] To follow up on these anecdotal reports, the investigators gave the subjects a questionnaire one month after completing their participation in the study to assess this effect of (17β)19-norpregna-1,3,5(10)-trien-3-ol in a systematic fashion.

[1] = Study CL004: follow-on appetite study; type: in vivo, human; details: one dose every 10 minutes for 6 hours, interim findings
Protocol: Study CL004. Study CL004 was conducted as a follow-on to the surprising appetite results of study CL003, and was designed to provide a more focused investigation of the effects of (17β)19-norpregna-1,3,5(10)-trien-3-ol on appetite. […] Study CL004 was conducted after study CL003 had been completed.

VNO cells = assay: In Vitro Study CL002: inward current in VNO cells; type: cell-based, human; details: for mean peak inward current: 10^−5 M
Protocol: In Vitro Study CL002. This study was conducted using VNO cells that had been collected from healthy male and female volunteers. […] In addition, the magnitude of the response was greater in cells from women than in cells from men.

[2] = Study CL006: mealtime dosing in metabolic unit, appetite and food intake; type: in vivo, human; details: some participants, dosing with mealtimes, informal analysis of blinded data
Excerpt: Study CL006. Study CL006 was designed to provide an evaluation of a more clinically meaningful (17β)19-norpregna-1,3,5(10)-trien-3-ol dosing regimen, as well as to provide a more controlled environment in which to evaluate appetite and food intake effects. In this study, subjects received (17β)19-norpregna-1,3,5(10)-trien-3-ol in association with mealtimes, and they remained in a metabolic unit throughout the study.

VNO = assay: In Vivo Study CL001: electrovomerogram (EVG), autonomic parameters and EEG after VNO stimulation; design: species or system human; key to performance summary: EDA / performance summary: α-CA / performance summary: EVG: + indicates a moderate increase in activity; ++ indicates a substantial increase in activity; details: for EVG, difference from the response to placebo: 200 pg vapor pulse to VNO; for mean peak amplitude of the EVG (electrovomerogram) response: single intranasal dose
Protocol: In Vivo Study CL001. This study was conducted in healthy male and female volunteers each tested with a single dose of (17β)19-norpregna-1,3,5(10)-trien-3-ol. The mean peak amplitude of the EVG (electrovomerogram) response to intranasal administration of (17β)19-norpregna-1,3,5(10)-trien-3-ol, reported as the magnitude of the difference from the response to placebo, was […] (13.9 mV in women and 5.3 mV in men difference from the response to placebo). […] In addition, the peak amplitude of the response in women was greater than that in men. Methods: For VNO stimulation, a 10^−8 M solution of (17β)19-norpregna-1,3,5(10)-trien-3-ol vomeropherin was prepared in propylene glycol (PG). A vapor pulse (duration: 2 seconds) of the vomeropherin was obtained bubbling clean air through the solution (air flow: 3 mL/min.). This delivered an estimated quantity of 200 pg of (17β)19-norpregna-1,3,5(10)-trien-3-ol to the VNO. The control was a pulse of PG alone in vapor form. Processing and analysis of the results was done off-line. The amplitude or frequency of the different parameters was measured. The mean and standard deviation of the mean were obtain for all parameters 5 minutes after stimulation with control, and (17β)19-norpregna-1,3,5(10)-trien-3-ol. The significance of the results was studied using the paired, two-tailed student t-test, and analysis of variance.

[3] = Study CL005: food consumption and appetite study; type: in vivo, human; details: same dosing regimen; not after placebo; preliminary data analysis
Excerpt: Study CL005. Study CL005 was designed to investigate in detail the effects of (17β)19-norpregna-1,3,5(10)-trien-3-ol -on food consumption in studies CL003 and CL004. The (17β)19-norpregna-1,3,5(10)-trien-3-ol dosing regimen was the same as had been used for the previous studies. Food intake and appetite were examined in this study in great detail. Subjects kept records of their appetite, food intake, etc., over a 3-4 month period.

[4] = dosed at 10-minute intervals over 6 hours

CC[C@H]1CC[C@H]2[C@@H]3CCc4cc(O)ccc4[C@H]3CC[C@]12C [(17β)19-norpregna-1,3,5(10)-trien-3-ol]
appetite (questionnaire one month after study) (gonadotropin secretion; all subjects): large increase in appetite
gonadotropin secretion (gonadotropin secretion; [4]): No consistent changes
menstrual cycle pattern or ovulation (gonadotropin secretion; [4]): no changes
appetite ([1]; all subjects, not after placebo): increase in appetite for at least one week
body weight [1]: persistent increase in body weight
concentration of peak effect (inward current) (VNO cells; VNO cells): 10^−5 M
concentration at which inward current response was significantly different from the control response (VNO cells; VNO cells from men and women): ≥ 10^−7 M
response of VNO cells to application (VNO cells; cells from both men and women, magnitude dose dependent): development of an inward current
mean peak inward current (VNO cells; cells from men): 55 pA
mean peak inward current (VNO cells; cells from women): 96 pA
body weight [2]: treatment-related increase
food intake [2]: treatment-related increase
activity in the VNO (VNO; both female and male subjects): active
EDA compared with placebo (VNO; eight female subjects, 200 pg, p<0.05): increased significantly from placebo; also recorded: increased EDA
Other autonomic parameters and EMG (VNO; female subjects): remained unchanged
performance summary: EDA (VNO; female subjects): +
performance summary: EVG (VNO; female subjects): ++
performance summary: α-CA (VNO; female subjects): ++
Respiratory frequency (RF), difference from placebo (VNO; female subjects, 200 pg): +3.0 cycles/min
alpha-cortical activity (α-CA), difference from placebo (VNO; female subjects, 200 pg): +35.8 μV^2/Hz
beta-cortical activity (β-CA), difference from placebo (VNO; female subjects, 200 pg): −2.2 μV^2/Hz
body temperature (BT), difference from placebo (VNO; female subjects, 200 pg): +0.2 °C
cardiac frequency (CF), difference from placebo (VNO; female subjects, 200 pg): 0 beats/min
electromyogram (EMG), difference from placebo (VNO; female subjects, 200 pg): 0 Hz
EVG, difference from the response to placebo (VNO; female subjects): 13.9 mV and 13.8 mV
electrodermal activity (EDA), difference from placebo (VNO; female subjects, 200 pg, 5 minutes after stimulation): +109.4 μS
Alpha rhythm recorded from T4A2 compared with placebo (VNO; female subjects, p<0.05): increased significantly from placebo
beta rhythm in CA2 compared with placebo (VNO; female subjects, p<0.05): decreased beta rhythm
performance summary: EDA (VNO; male subjects): +
performance summary: EVG (VNO; male subjects): +
Body temperature compared with placebo (VNO; male subjects, p<0.05): decreased
alpha rhythm compared with placebo (VNO; male subjects, p<0.05): decreased
Other biological parameters (VNO; males): did not change significantly
EVG, difference from the response to placebo (VNO; men): 5.3 mV
EDA compared with placebo (VNO; men, p<0.05): increased EDA
EVG response compared with placebo (VNO; men, p<0.05): significantly greater than that to placebo; also recorded: significantly different from placebo
mean peak amplitude of the EVG (electrovomerogram) response (VNO; men): 30 mV
BT, difference from placebo (VNO; six male subjects): −1.2
CF, difference from placebo (VNO; six male subjects): 0
EDA, difference from placebo (VNO; six male subjects): +79.1
EMG, difference from placebo (VNO; six male subjects): 0
EVG, difference from placebo (VNO; six male subjects): +5.3
RF, difference from placebo (VNO; six male subjects): −1.7
α-CA, difference from placebo (VNO; six male subjects): −11.7
EVG response compared with placebo (VNO; women): significantly greater than that to placebo; also recorded: robust mean EVG; also recorded: large EVG
mean peak amplitude of the EVG (electrovomerogram) response (VNO; women): 50 mV
appetite [3]: perceived increase in appetite for at least one week

Reference: patent US6555531B1, “Weight promoting composition, method, and product” (Pherin Pharmaceuticals, Inc., priority 1999, dated 2003)
